Experimental data published in patent US4122077A, “Somatostatin analogs” (American Home Products Corporation, priority 1977, dated 1978).
Several values for one entry are separate records, joined by “and”; a condition that tells them apart may be missing. Equal entries are not always repeated. Where a SMILES comes first, the peptide text is derived from it. Bridges are numbered along the chain shown (N, C = ends). [ ]: non-standard residue; d: D form.

Key:
growth hormone (GH) = assay: Suppression of growth hormone (duration of activity after sc injection); assay type: in vivo, rats
Procedure: A subcutaneous (sc) injection of peptide solubilized or suspended in physiological saline, is given to Charles River CD® nonfasted male rats. Matched saline control solution sc injected rats serve as control animals so that every experimental rat is paired with a control rat. The rats are kept in separate cages and 20 minutes before the end of the test time period they are given an intraperitoneal (i.p.) injection of Nembutal® at a dose of 50 mg/kg. Blood samples are obtained by cardiac puncture and the plasma separated for the radioimmunoassay of growth hormone (GH) concentration (ng/ml.). Time periods after injection of 2, 4, 5, and 6 hours are generally used to test the duration of the activity of the peptide to suppress circulating peripheral GH levels. Comparisons between control and experimental GH values at each time are evaluated by the Student "t" test and statistical significance (p) at the 0.05 level or lower is used as the index of activity.

growth hormone = assay: Suppression of growth hormone, glucagon and insulin (arginine-stimulated, nembutal rats): GH; assay type: in vivo
Procedure: (§1) Albino male rats are arranged in three groups (nine rats/group) and injected i.p. with nembutal at 50mg/kg. 15 minutes after the nembutal injection they are injected s.c. according to group with (a) test compound, typically 10-2000 μg/kg.; (b) SRIF 200 μg/kg.; or (c) physiological saline. 10 minutes later 0.5 ml. of arginine (300 mg/ml., pH 7.2) is injected into the heart. The rats are decapitated 5 minutes after receiving the arginine, and the blood is collected into Trasylol-EDTA. Appropriate aliquots are then assayed for growth hormone, glucagon and insulin. […] Comparisons between control and experimental values are statistically evaluated by the analysis of variants method and statistical significance (p) at 0.05 or lower is used as the index of activity.

glucagon = assay: Suppression of growth hormone, glucagon and insulin (arginine-stimulated, nembutal rats): glucagon; assay type: in vivo; settings: arginine challenge
Procedure: as §1

insulin = assay: Suppression of growth hormone, glucagon and insulin (arginine-stimulated, nembutal rats): insulin; assay type: in vivo; settings: arginine challenge
Procedure: as §1

[1] = 200 μg/kg. s.c., arginine challenge (table 5)
[2] = 100 μg/kg. s.c., arginine challenge (table 5)

SMILES	Glucagon (glucagon; 100 μg/kg. s.c.)	Glucagon (glucagon; 200 μg/kg. s.c.)	Insulin (insulin; 100 μg/kg. s.c.)	Insulin (insulin; 200 μg/kg. s.c.)	GH, 2 Hours (growth hormone (GH); 1000 μg/kg. sc, rats)	GH, 4 Hours (growth hormone (GH); 1000 μg/kg. sc, rats)	GH (growth hormone; [2])	further results
C[C@@H](O)[C@@H]1NC(=O)[C@H](Cc2ccccc2)NC(=O)[C@H]([C@@H](C)O)NC(=O)[C@H](CCCCN)NC(=O)[C@@H](Cc2c[nH]c3ccccc23)NC(=O)[C@H](Cc2ccccc2)NC(=O)[C@H](Cc2ccccc2)NC(=O)[C@@H](Cc2c[nH]c3ccccc23)NC(=O)[C@@H](Cc2ccc(O)cc2)NC(=O)[C@@H](N)CSSC[C@@H](C(=O)O)NC(=O)[C@H](CO)NC1=O [B, L-Cysteinyl-D-Tyrosyl-D-Tryptophyl-L-Phenylalanyl-L-Phenylalanyl-D-Tryptophyl-L-Lysyl-L-Threonyl-L-Phenylalanyl-L-Threonyl-L-Seryl-L-Cysteine Cyclic (1-12)-Disulfide] (H-C[dY][dW]FF[dW]KTFTSC-OH; disulfide 1-12)	5 ± 1 pg/mL	44 ± 9 pg/mL	170 ± 15 μU/ml.	239 ± 17 μU/ml.				plasma growth hormone (GH) concentration, 2 Hr. (growth hormone (GH); 1 mg/kg. sc, nonfasted male rats, 2 Hr. after injection): 111 ± 14 ng/mL; plasma growth hormone (GH) concentration, 4 Hr. (growth hormone (GH); 1 mg/kg. sc, nonfasted male rats, 4 Hr. after injection): 67 ± 14 ng/mL; plasma growth hormone (GH) concentration, 5 Hr. (growth hormone (GH); 1 mg/kg. sc, nonfasted male rats, 5 Hr. after injection): 151 ± 18 ng/mL; plasma growth hormone (GH) concentration, 2 Hr. (second column headed 2 Hr.) (growth hormone (GH); 1 mg/kg. sc, nonfasted male rats, second 2 Hr. column of table 3): 133 ± 34 ng/mL; GH (growth hormone; 10 μg/kg. s.c., 15 minutes after dose, arginine challenge): 125 ± 26 ng/mL; GH (growth hormone; 100 μg/kg. s.c., 15 minutes after dose, arginine challenge): 43 ± 7 ng/mL; GH (growth hormone; 500 μg/kg. s.c., 15 minutes after dose, arginine challenge): 38 ± 6 ng/mL; Glucagon (glucagon; 10 μg/kg. s.c.): 36 ± 4 pg/mL; Glucagon (glucagon; 300 μg/kg. s.c.): 38 ± 8 pg/mL; Glucagon (glucagon; 500 μg/kg. s.c.): 18 ± 4 pg/mL; Insulin (insulin; 10 μg/kg. s.c.): 162 ± 13 μU/ml.; Insulin (insulin; 300 μg/kg. s.c.): 153 ± 9 μU/ml.; Insulin (insulin; 500 μg/kg. s.c.): 116 ± 8 μU/ml.
C[C@@H](O)[C@@H]1NC(=O)[C@H](Cc2ccccc2)NC(=O)[C@H]([C@@H](C)O)NC(=O)[C@H](CCCCN)NC(=O)[C@@H](Cc2c[nH]c3ccccc23)NC(=O)[C@H](Cc2ccccc2)NC(=O)[C@H](Cc2ccccc2)NC(=O)[C@@H](Cc2ccc(O)cc2)NC(=O)[C@@H](Cc2c[nH]cn2)NC(=O)[C@@H](N)CSSC[C@@H](C(=O)O)NC(=O)[C@H](CO)NC1=O [C, L-Cysteinyl-D-Histidyl-D-Tyrosyl-L-Phenylalanyl-L-Phenylalanyl-D-Tryptophyl-L-Lysyl-L-Threonyl-L-Phenylalanyl-L-Threonyl-L-Seryl-L-Cysteine Cyclic (1-12)-Disulfide] (H-C[dH][dY]FF[dW]KTFTSC-OH; disulfide 1-12)				254 ± 31 μU/ml. and 273 ± 36 μU/ml.	34 ± 1 ng/mL	33 ± 2 ng/mL		GH, 5 Hours (growth hormone (GH); 1000 μg/kg. sc, rats): 51 ± 8 ng/mL; GH, 6 Hours (growth hormone (GH); 1000 μg/kg. sc, rats): 36 ± 3 ng/mL; GH, 7 Hours (growth hormone (GH); 1000 μg/kg. sc, rats, 7 hours): 37 ± 5 ng/mL; GH, 8 Hours (growth hormone (GH); 1000 μg/kg. sc, rats, 8 hours): 37 ± 6 ng/mL; GH (growth hormone; 10 μg/kg. s.c., arginine challenge (table 5)): 149 ± 23; Glucagon (glucagon; 10 μg/kg. s.c.): 165 ± 13 pg/mL; Insulin (insulin; 10 μg/kg. s.c.): 252 ± 41 μU/ml.
C[C@@H](O)[C@@H]1NC(=O)[C@H](CCCCN)NC(=O)[C@@H](Cc2c[nH]c3ccccc23)NC(=O)[C@H](Cc2ccccc2)NC(=O)[C@H](Cc2ccccc2)NC(=O)[C@@H](Cc2c[nH]c3ccccc23)NC(=O)[C@@H](Cc2ccc(O)cc2)NC(=O)[C@@H](N)CSSC[C@H](C(=O)O)NC(=O)[C@H](CO)NC(=O)[C@H]([C@@H](C)O)NC(=O)[C@H](Cc2ccccc2)NC1=O [Compound I, L-Cysteinyl-D-Tyrosyl-D-Tryptophyl-L-Phenylalanyl-L-Phenylalanyl-D-Tryptophyl-L-Lysyl-L-Threonyl-L-Phenylalanyl-L-Threonyl-L-Seryl-D-Cysteine Cyclic (1-12)-Disulfide] (H-C[dY][dW]FF[dW]KTFTS[dC]-OH; disulfide 1-12)		13 ± 2 pg/mL		236 ± 27 μU/ml.	49 ± 5 ng/mL	86 ± 11 ng/mL		GH (growth hormone; [1]): 57 ± 14
C[C@@H](O)[C@@H]1NC(=O)[C@H](Cc2ccccc2)NC(=O)[C@H]([C@@H](C)O)NC(=O)[C@H](CCCCN)NC(=O)[C@@H](Cc2c[nH]c3ccccc23)NC(=O)[C@H](Cc2ccccc2)NC(=O)[C@H](Cc2ccccc2)NC(=O)[C@@H](Cc2c[nH]c3ccccc23)NC(=O)[C@@H](CCCNC(=N)N)NC(=O)[C@@H](N)CSSC[C@@H](C(=O)O)NC(=O)[C@H](CO)NC1=O [D, L-Cysteinyl-D-Arginyl-D-Tryptophyl-L-Phenylalanyl-L-Phenylalanyl-D-Tryptophyl-L-Lysyl-L-Threonyl-L-Phenylalanyl-L-Threonyl-L-Seryl-L-Cysteine Cyclic (1-12)-Disulfide] (H-C[dR][dW]FF[dW]KTFTSC-OH; disulfide 1-12)	53 ± 9 pg/mL		35 ± 2 μU/ml.		28 ± 3 ng/mL	11 ± 2 ng/mL	21 ± 2	
C[C@@H](O)[C@@H]1NC(=O)[C@H](Cc2ccccc2)NC(=O)[C@H]([C@@H](C)O)NC(=O)[C@H](CCCCN)NC(=O)[C@@H](Cc2c[nH]c3ccccc23)NC(=O)[C@H](Cc2ccccc2)NC(=O)[C@H](Cc2ccccc2)NC(=O)[C@@H](Cc2c[nH]cn2)NC(=O)[C@@H](Cc2c[nH]cn2)NC(=O)[C@@H](N)CSSC[C@@H](C(=O)O)NC(=O)[C@H](CO)NC1=O [E, L-Cysteinyl-D-Histidyl-D-Histidyl-L-Phenylalanyl-L-Phenylalanyl-D-Tryptophyl-L-Lysyl-L-Threonyl-L-Phenylalanyl-L-Threonyl-L-Seryl-L-Cysteine Cyclic (1-12)-Disulfide] (H-C[dH][dH]FF[dW]KTFTSC-OH; disulfide 1-12)		29 ± 12 pg/mL		182 ± 18 μU/ml.	36 ± 16 ng/mL	45 ± 10 ng/mL		GH (growth hormone; [1]): 34 ± 3
C[C@@H](O)[C@@H]1NC(=O)[C@H](CCCCN)NC(=O)[C@@H](Cc2c[nH]c3ccccc23)NC(=O)[C@H](Cc2ccccc2)NC(=O)[C@H](Cc2ccccc2)NC(=O)[C@@H](CCCNC(=N)N)NC(=O)[C@@H](Cc2ccc(O)cc2)NC(=O)[C@@H](N)CSSC[C@H](C(=O)O)NC(=O)[C@H](CO)NC(=O)[C@H]([C@@H](C)O)NC(=O)[C@H](Cc2ccccc2)NC1=O [F, L-Cysteinyl-D-Tryrosyl-D-Arginyl-L-Phenylalanyl-L-Phenylalanyl-D-Tryptophyl-L-Lysyl-L-Threonyl-L-Phenylalanyl-L-Threonyl-L-Seryl-D-Cysteine Cyclic (1-12)-Disulfide] (H-C[dY][dR]FF[dW]KTFTS[dC]-OH; disulfide 1-12)	24 ± 5 pg/mL		103 ± 24 μU/ml.		113 ± 34 ng/mL	99 ± 11 ng/mL	11 ± 3	
CC(C)C[C@H]1NC(=O)[C@@H](N)CSSC[C@@H](C(=O)O)NC(=O)[C@H](CO)NC(=O)[C@H]([C@@H](C)O)NC(=O)[C@H](Cc2ccccc2)NC(=O)[C@H]([C@@H](C)O)NC(=O)[C@H](CCCCN)NC(=O)[C@@H](Cc2c[nH]c3ccccc23)NC(=O)[C@H](Cc2ccccc2)NC(=O)[C@H](Cc2ccccc2)NC(=O)[C@@H](Cc2ccc(O)cc2)NC1=O [G, L-Cysteinyl-D-Leucyl-D-Tyrosyl-L-Phenylalanyl-L-Phenylalanyl-D-Trypotophyl-L-Lysyl-L-Threonyl-L-Phenylalanyl-L-Threonyl-L-Seryl-L-Cysteine Cyclic (1-12)-Disulfide] (H-C[dL][dY]FF[dW]KTFTSC-OH; disulfide 1-12)	28 ± 16 pg/mL		218 ± 44 μU/ml.		84 ± 11 ng/mL	94 ± 23 ng/mL	29 ± 16	GH, 5 Hours (growth hormone (GH); 1000 μg/kg. sc, rats): 93 ± 30 ng/mL; GH, 6 Hours (growth hormone (GH); 1000 μg/kg. sc, rats): 72 ± 68 ng/mL
C[C@@H](O)[C@@H]1NC(=O)[C@H](CCCCN)NC(=O)[C@@H](Cc2c[nH]c3ccccc23)NC(=O)[C@H](Cc2ccccc2)NC(=O)[C@H](Cc2ccccc2)NC(=O)[C@@H](Cc2ccc(O)cc2)NC(=O)[C@@H](CCCNC(=N)N)NC(=O)[C@@H](N)CSSC[C@H](C(=O)O)NC(=O)[C@H](CO)NC(=O)[C@H]([C@@H](C)O)NC(=O)[C@H](Cc2ccccc2)NC1=O [H, L-Cysteinyl-D-Arginyl-D-Tyrosyl-L-Phenylalanyl-L-Phenylalanyl-D-Tryptophyl-L-Lysyl-L-Threonyl-L-Phenylalanyl-L-Threonyl-L-Seryl-D-Cysteine Cyclic (1-12)-Disulfide] (H-C[dR][dY]FF[dW]KTFTS[dC]-OH; disulfide 1-12)					75 ± 4 ng/mL	144 ± 21 ng/mL		GH (growth hormone; 25 μg/kg. s.c., arginine challenge (table 5)): 23 ± 4; Glucagon (glucagon; 25 μg/kg. s.c.): 56 ± 6 pg/mL; Insulin (insulin; 25 μg/kg. s.c.): 128 ± 11 μU/ml.
